{
  "source": "paper PMC10272180",
  "about": "“Ancient medicinal plant rosemary contains a highly efficacious and isoform-selective KCNQ potassium channel opener” (Communications Biology, 2023)",
  "assay_type_in_all_cases": "cell-based",
  "key": {"KCNQ2/5": {"molecular_target": "T1, KCNQ2/5 (Homo sapiens, UniProt O43526+Q9NR82)", "T1 construct": "expressed in transfected cells; host or cells: Xenopus laevis oocytes co-injected with cRNAs", "assay": "TEVC of KCNQ2/5 heteromers expressed in Xenopus laevis oocytes", "from_the_text": "(§1) We generated cRNA transcripts encoding human KCNQ1, 2, 3, and 5 (wild-type and mutant) by in vitro transcription using the mMessage mMachine kit (Thermo Fisher Scientific, Waltham, MA, USA) according to manufacturer’s instructions, after vector linearization, from cDNA sub-cloned into expression vectors (pTLNx and pXOOM) incorporating Xenopus laevis β-globin 5’ and 3’ UTRs flanking the coding region to enhance translation and cRNA stability. Mutant KCNQ cDNAs were generated by Genscript (Piscataway, NJ, USA) and cRNAs made as above. We injected defolliculated stage V and VI Xenopus laevis oocytes (Xenoocyte, Dexter, MI, USA) with KCNQ cRNAs (2–10 ng) and incubated the oocytes at 16 °C in ND96 oocyte storage solution containing penicillin and streptomycin, with daily washing, for 2–4 days prior to two-electrode voltage-clamp (TEVC) recording.\n(§2) We performed TEVC at room temperature using an OC-725C amplifier (Warner Instruments, Hamden, CT, USA) and pClamp10 software (Molecular Devices, Sunnyvale, CA, USA) 2–4 days after cRNA injection. We placed oocytes in a small-volume oocyte bath (Warner) and viewed them with a dissection microscope for cellular electrophysiology. We sourced chemicals from Sigma-Aldrich (St. Louis, MO, USA) and Combi-Blocks (San Diego, CA, USA). We studied effects of Salvia rosmarinus extracts and of compounds, solubilized directly in bath solution (in mM): 96 NaCl, 4 KCl, 1 MgCl2, 1 CaCl2, 10 HEPES (pH 7.6). We introduced extracts or compounds into the oocyte recording bath by gravity perfusion at a constant flow of 1 ml per minute for 3 min prior to recording. Pipettes were of 1-2 MΩ resistance when filled with 3 M KCl. We recorded currents in response to voltage pulses between −120 mV and +40 mV at 10 mV intervals from a holding potential of −80 mV, to yield current-voltage relationships and examine activation kinetics. We analyzed data using Clampfit (Molecular Devices) and Graphpad Prism software (GraphPad, San Diego, CA, USA), stating values as mean ± SEM. We plotted raw or normalized tail currents versus prepulse voltage and fitted with a single Boltzmann function:1 g=(A1−A2)/1+exp[V1/2−V/Vs]y+A2 where g is the normalized tail conductance, A1 is the initial value at -∞, A2 is the final value at +∞, V1/2 is the half-maximal voltage of activation and Vs the slope factor. We fitted activation and deactivation kinetics with single exponential functions."}, "KCNQ3*-P211A": {"molecular_target": "KCNQ3*-P211A (Homo sapiens, UniProt O43525, A315T/P211A)", "assay": "TEVC of mutant KCNQ3*-P211A in oocytes", "from_the_text": "as §1, §2"}, "[1]": {"molecular_target": "T2, KCNQ3* coexpressed with Danio rerio VSP (DrVSP) (Homo sapiens, UniProt O43525, A315T)", "T2 construct": "expressed in transfected cells; host or cells: Xenopus laevis oocytes", "assay": "TEVC of KCNQ3* coexpressed with DrVSP, PIP2 depletion at +120 mV", "settings": "5 µM", "from_the_text": "Under baseline conditions, binding of the […], lipid-derived signaling molecule phosphatidylinositol 4,5-bisphosphate (PIP2) to KCNQ3 (and other KCNQ isoforms) is required for efficient coupling of the voltage sensor to pore opening and thus voltage-dependent gating[22],[23]. […] Another strategy for PIP2 reduction is to express a voltage-sensitive phosphatase (VSP) that reduces PIP2 levels upon membrane depolarization. […]\nWe performed TEVC at room temperature using an OC-725C amplifier (Warner Instruments, Hamden, CT, USA) and pClamp10 software (Molecular Devices, Sunnyvale, CA, USA) 2–4 days after cRNA injection. […] We recorded currents in response to voltage pulses between −120 mV and +40 mV at 10 mV intervals from a holding potential of −80 mV, to yield current-voltage relationships and examine activation kinetics. We analyzed data using Clampfit (Molecular Devices) and Graphpad Prism software (GraphPad, San Diego, CA, USA), stating values as mean ± SEM. […]"}, "KCNQ2/3/5": {"molecular_target": "T3, KCNQ2/3/5 (Homo sapiens, UniProt O43525+O43526+Q9NR82)", "T3 construct": "expressed in transfected cells; host or cells: Xenopus laevis oocytes co-injected with cRNAs (1:1:1 according to the authors' reply)", "assay": "TEVC of KCNQ2/3/5 heteromers expressed in Xenopus laevis oocytes", "from_the_text": "as §1, §2"}, "KCNQ3*-L198F": {"molecular_target": "KCNQ3*-L198F (Homo sapiens, UniProt O43525, A315T/L198F)", "assay": "TEVC of mutant KCNQ3*-L198F in oocytes", "from_the_text": "as §1\nas §2, with “We recorded currents in response to voltage pulses between −120 mV and +40 mV at 10 mV intervals from a holding potential of −80 mV, to yield current-voltage relationships and examine activation kinetics.” left out"}, "KCNQ2": {"molecular_target": "KCNQ2 (Homo sapiens, UniProt O43526)", "assay": "TEVC of KCNQ2 homomers expressed in Xenopus laevis oocytes", "from_the_text": "as §1\nas §2, with “We recorded currents in response to voltage pulses between −120 mV and +40 mV at 10 mV intervals from a holding potential of −80 mV, to yield current-voltage relationships and examine activation kinetics.” left out"}},
  "data": [
    {"compound": "CC(C)c1cc2c(c(O)c1O)[C@@]1(C(=O)O)CCCC(C)(C)[C@@H]1CC2", "note": "[Carnosic acid, carnosic acid]", "values": [
      {"measurement": "V0.5 Normalized tail current", "setting": "KCNQ2/5; 0.1 µM", "value": "-40.58 ± 1.11", "unit": "mV"},
      {"measurement": "V0.5 Normalized tail current", "setting": "KCNQ2/5; 1 µM", "value": "-44.54 ± 0.73", "unit": "mV"},
      {"measurement": "V0.5 Normalized tail current", "setting": "KCNQ2/5; 3 µM", "value": "-47.07 ± 0.55", "unit": "mV"},
      {"measurement": "V0.5 Normalized tail current", "setting": "KCNQ2/5; 10 µM", "value": "-46.44 ± 0.68", "unit": "mV"},
      {"measurement": "V0.5 Normalized tail current", "setting": "KCNQ2/5; 30 µM", "value": "-45.89 ± 0.76", "unit": "mV"},
      {"measurement": "V0.5 Normalized tail current", "setting": "KCNQ2/5; 100 µM", "value": "-46.50 ± 0.97", "unit": "mV"},
      {"measurement": "EC50", "setting": "KCNQ2/5; EC50 EM", "value": "4.76 ± 0.34", "unit": "µM"},
      {"measurement": "EC50", "setting": "KCNQ2/5; EC50 V0.5 Activation", "value": "0.74 ± 0.12", "unit": "µM"},
      {"measurement": "V0.5 Normalized tail current", "setting": "KCNQ3*-P211A; 0.1 µM", "value": "-55.16 ± 1.00", "unit": "mV"},
      {"measurement": "V0.5 Normalized tail current", "setting": "KCNQ3*-P211A; 1 µM", "value": "-59.20 ± 1.17", "unit": "mV"},
      {"measurement": "V0.5 Normalized tail current", "setting": "KCNQ3*-P211A; 3 µM", "value": "-61.55 ± 1.44", "unit": "mV"},
      {"measurement": "V0.5 Normalized tail current", "setting": "KCNQ3*-P211A; 10 µM", "value": "-78.35 ± 1.93", "unit": "mV"},
      {"measurement": "V0.5 Normalized tail current", "setting": "KCNQ3*-P211A; 30 µM", "value": "-98.23 ± 4.44", "unit": "mV"},
      {"measurement": "V0.5 Normalized tail current", "setting": "KCNQ3*-P211A; 100 µM", "value": "-110.7 ± 3.83", "unit": "mV"},
      {"measurement": "EC50", "setting": "KCNQ3*-P211A; EC50 EM", "value": "3.21 ± 0.21", "unit": "µM"},
      {"measurement": "EC50", "setting": "KCNQ3*-P211A; EC50 V0.5 Activation", "value": "15.25 ± 0.07", "unit": "µM"},
      {"measurement": "carnosic acid efficacy and potency compared with KCNQ3*", "setting": "KCNQ3*-P211A; dose-response", "value": "very similarly"},
      {"measurement": "effect on DrVSP-induced KCNQ3* current decay", "setting": "[1]", "value": "reduced or prevented"},
      {"measurement": "V0.5 Normalized tail current", "setting": "KCNQ2/3/5; 0.1 µM", "value": "-43.51 ± 1.17", "unit": "mV"},
      {"measurement": "V0.5 Normalized tail current", "setting": "KCNQ2/3/5; 1 µM", "value": "-47.43 ± 0.94", "unit": "mV"},
      {"measurement": "V0.5 Normalized tail current", "setting": "KCNQ2/3/5; 3 µM", "value": "-49.89 ± 0.88", "unit": "mV"},
      {"measurement": "V0.5 Normalized tail current", "setting": "KCNQ2/3/5; 10 µM", "value": "-52.31 ± 0.77", "unit": "mV"},
      {"measurement": "V0.5 Normalized tail current", "setting": "KCNQ2/3/5; 30 µM", "value": "-54.68 ± 0.89", "unit": "mV"},
      {"measurement": "V0.5 Normalized tail current", "setting": "KCNQ2/3/5; 100 µM", "value": "-57.42 ± 1.03", "unit": "mV"},
      {"measurement": "EC50", "setting": "KCNQ2/3/5; EC50 EM", "value": "3.13 ± 0.44", "unit": "µM"},
      {"measurement": "EC50", "setting": "KCNQ2/3/5; EC50 V0.5 Activation", "value": "2.02 ± 0.44", "unit": "µM"},
      {"measurement": "V0.5 Normalized tail current", "setting": "KCNQ3*-L198F; 0.1 µM", "value": "-58.22 ± 0.59", "unit": "mV"},
      {"measurement": "V0.5 Normalized tail current", "setting": "KCNQ3*-L198F; 1 µM", "value": "-62.90 ± 0.79", "unit": "mV"},
      {"measurement": "V0.5 Normalized tail current", "setting": "KCNQ3*-L198F; 3 µM", "value": "-73.56 ± 0.79", "unit": "mV"},
      {"measurement": "V0.5 Normalized tail current", "setting": "KCNQ3*-L198F; 10 µM", "value": "-91.66 ± 1.99", "unit": "mV"},
      {"measurement": "V0.5 Normalized tail current", "setting": "KCNQ3*-L198F; 30 µM", "value": "-116.6 ± 3.44", "unit": "mV"},
      {"measurement": "EC50", "setting": "KCNQ3*-L198F; EC50 EM", "value": "1.15 ± 0.12", "unit": "µM"},
      {"measurement": "EC50", "setting": "KCNQ3*-L198F; EC50 V0.5 Activation", "value": "6.28 ± 0.08", "unit": "µM"},
      {"measurement": "carnosic acid efficacy and potency compared with KCNQ3*", "setting": "KCNQ3*-L198F; dose-response", "value": "very similarly"},
      {"measurement": "V0.5 Normalized tail current", "setting": "KCNQ2; 0.1 µM", "value": "-41.03 ± 1.43", "unit": "mV"},
      {"measurement": "V0.5 Normalized tail current", "setting": "KCNQ2; 1 µM", "value": "-44.14 ± 0.95", "unit": "mV"},
      {"measurement": "V0.5 Normalized tail current", "setting": "KCNQ2; 3 µM", "value": "-46.74 ± 0.85", "unit": "mV"},
      {"measurement": "V0.5 Normalized tail current", "setting": "KCNQ2; 10 µM", "value": "-45.67 ± 0.73", "unit": "mV"},
      {"measurement": "V0.5 Normalized tail current", "setting": "KCNQ2; 30 µM", "value": "-45.20 ± 0.88", "unit": "mV"},
      {"measurement": "V0.5 Normalized tail current", "setting": "KCNQ2; 100 µM", "value": "-43.10 ± 0.64", "unit": "mV"},
      {"measurement": "activity across the concentration range tested", "setting": "KCNQ2; 0.1-100 µM", "value": "only weakly active"}
    ]}
  ]
}
